Consider three molecules from patent US8067529B2, “Immunogenic T-helper epitopes from human tumour antigens and immunotherapeutic methods using said epitopes” (Immatics Biotechnologies GmbH, priority 2004, dated 2011).

Common to all, as to type: cell-based, human
One test relates to Ii-fusion proteins. The test is described as follows: Endosomal/lysosomal targeting of the fusion proteins (chloroquin, Western blot with mAb PIN.1). The note with it: transfectants incubated 4 h with increasing amounts of chloroquin (10-100 μM). The procedure: Fusion proteins were detected by Western blot analysis using the mAb PIN.1 (Stressgen, Biomol, Hamburg, Germany) which binds to amino acid residues 12-28 of Ii. Briefly, cells were lysed as described (Hsieh, C. S., deRoos, P., Honey, K., Beers, C. & Rudensky, A. Y. (2002) J. Immunol. 168, 2618-2625), lysates were boiled in Laemmli loading buffer, separated on a 12% SDS-PAGE and transferred onto nitrocellulose membranes. After a saturation step with BSA, membranes were incubated for 1 h at room temperature with the mAb PIN.1 (1 μg/ml). Proteins were visualised using a peroxidase-coupled sheep anti-mouse IgG (Amersham Pharmacia, Freiburg, Germany). […] Cells were then lysed and proteins were detected by Western blot as described above.
It has already been described that the N-terminus of Ii is sufficient to target proteins into the MHC class II pathway (Sanderson, S., Frauwirth, K. & Shastri, N. (1995) Proc. Natl. Acad. Sci. U.S. A 92, 7217-7221, Wang, R. F., Wang, X., Atwood, A. C., Topalian, S. L. & Rosenberg, S. A. (1999) Science 284, 1351-1354, Malcherek, G., Wirblich, C., Willcox, N., Rammensee, H. G., Trowsdale, J. & Melms, A. (1998) Eur. J. Immunol. 28, 1524-1533). […] Cells were then lysed and fusion proteins were detected by Western blot.

A further test has as its system IFN-γ. The test is described as follows: IFN-γ secretion by sandwich ELISA. Particulars: peptide-induced T-cell stimulation, 10 μM peptide; 24 hours supernatant. The procedure: (§1) T-helper cell activation was tested by cell proliferation as estimated by thymidine incorporation as well as cytokine secretion. Briefly, 2×10^5 cells were incubated in triplicates in a 96-well plate with 2×10^5 irradiated autologous PBMC in the presence or absence of 10 μM peptide or 3 μg/ml PHA. After 24 hours, two portions of 50 μl supernatant were harvested and frozen and 50 μl fresh medium was added to the cells. After 54 hours, 50 μl of tritiated thymidine-containing medium (0.074 MBq/well, Hartmann Analytic, Braunschweig, Germany) was added and thymidine incorporation measured at 72 hours using a scintillation counter (Microbeta, Wallac, Freiburg, Germany). Cell proliferation is expressed as a stimulation index (S.I.), which corresponds to the ratio: (mean cpm of stimulated T cells)/(mean cpm of unstimulated T cells). IL-2 secretion was measured using the IL-2 dependent CTLL-2 cell line. […] Then, thymidine-containing-medium (0.055 MBq/well) was added for 7-8 additional hours and thymidine incorporation was measured as described above. Results are also expressed as a S.I. IFN-γ, IL-4 and IL-6 secretion was measured by sandwich ELISA using antibody pairs and peroxidase-conjugated streptavidin from PharMingen and according to Manufacturer's recommendations. […] OD450 was then measured and results expressed in pg/ml according to the standards.
(An ELISA detects its analyte on a solid surface through an enzyme-linked reagent.)

For a further test, the system named is IL-2. The experiment in a line: IL-2 secretion measured with the IL-2 dependent CTLL-2 cell line. Particulars: T-helper cell line with autologous PBMC; 10 μM peptide or 3 μg/ml PHA; 24 hours supernatant. The procedure: (§2) T-helper cell activation was tested by cell proliferation as estimated by thymidine incorporation as well as cytokine secretion. Briefly, 2×10^5 cells were incubated in triplicates in a 96-well plate with 2×10^5 irradiated autologous PBMC in the presence or absence of 10 μM peptide or 3 μg/ml PHA. After 24 hours, two portions of 50 μl supernatant were harvested and frozen and 50 μl fresh medium was added to the cells. After 54 hours, 50 μl of tritiated thymidine-containing medium (0.074 MBq/well, Hartmann Analytic, Braunschweig, Germany) was added and thymidine incorporation measured at 72 hours using a scintillation counter (Microbeta, Wallac, Freiburg, Germany). Cell proliferation is expressed as a stimulation index (S.I.), which corresponds to the ratio: (mean cpm of stimulated T cells)/(mean cpm of unstimulated T cells). IL-2 secretion was measured using the IL-2 dependent CTLL-2 cell line. Briefly, 10^4 cells were incubated in the presence of supernatants for 20-24 hours. Then, thymidine-containing-medium (0.055 MBq/well) was added for 7-8 additional hours and thymidine incorporation was measured as described above. Results are also expressed as a S.I.

The subject of another test is T-helper cell line. The experiment in a line: T-helper cell proliferation by thymidine incorporation (stimulation index). Particulars: T-helper cell line with irradiated autologous PBMC; 10 μM peptide or 3 μg/ml PHA; thymidine incorporation at 72 hours. The procedure:
3×10^5 matured DC were loaded for two hours with 10 μM of peptide […] (SEQ ID NO: 1) in a 24-well plate and extensively washed. Then 4×10^6 fresh autologous PBMC were added onto DC in the presence of 10 ng/ml IL-12p70 in order to favour Th-1 development. PBMC were weekly restimulated with peptide-loaded irradiated autologous PBMC in the presence of 10 U/ml IL-2 and 5 ng/ml IL-7. After 3 and 5 restimulations, T cells were pooled and tested against autologous PBMC in the presence of peptide. […]
as §2, with “Briefly, 2×10^5 cells were incubated in triplicates in a 96-well plate with 2×10^5 irradiated autologous PBMC in the presence or absence of 10 μM peptide or 3 μg/ml PHA. After 24 hours, two portions of 50 μl supernatant were harvested and frozen and 50 μl fresh medium was added to the cells.” left out, “Briefly, 10^4 cells were incubated in the presence of supernatants for 20-24 hours.” left out

The subject of another test is IL-4. The experiment in a line: IL-4 secretion by sandwich ELISA. The note with it: T-helper cell line; 10 μM peptide or 3 μg/ml PHA. The procedure: as §1
The subject of another test is IL-6. The experiment in a line: IL-6 secretion by sandwich ELISA. Particulars: T-helper cell line; 10 μM peptide or 3 μg/ml PHA. The procedure:
as §1

As for `CCN(CC)CCCC(C)Nc1ccnc2cc(Cl)ccc12` (stereo not shown) [chloroquin], the “fusion protein amounts (Western blot band intensity)” value in the test with Ii-fusion proteins is reported as “fusion protein amounts increase with chloroquin concentrations”.

Molecule “NPPSMVAAGSVVAAV (listed as Homo sapiens) [cyclin D1 peptide, immunogenic HLA-DR4-presented cyclin D1 peptide antigen]” showed an IFN-γ secretion in the test on IFN-γ of 3250 pg/mL. Further, the “IL-2 production of the T cells” value in the test with IL-2 is listed as “produced IL-2 in response to the peptide, although to a low extent”. Moreover, the “T-cell proliferation, stimulation index (S.I.)” value in the test on T-helper cell line stood at 5.4. The IL-4 secretion entry with IL-4 is “no IL-4 or IL-6 secretion”. Also, the IL-6 secretion result in the test with IL-6 is “no IL-4 or IL-6 secretion”.

As to Phytohaemagglutinin [PHA], the “IL-2 production of the T cells” value in the test with IL-2 is recorded as “still sensitive to PHA stimulation”. For the same molecule, in the test with T-helper cell line, the “T-cell proliferation, stimulation index (S.I.)” value was found to be 330. The IL-4 secretion result with IL-4 is recorded as “highly”. The IL-6 secretion entry in the test with IL-6 was “moderately”.
